This is an account of results in paper PMC8350397, “GSK137, a potent small-molecule BCL6 inhibitor with in vivo activity, suppresses antibody responses in mice” (The Journal of Biological Chemistry, 2021).

Series [1] addresses T1, full-length human BCL6 binding to BCL6-binding domain of SMRT (residues 1292-1500) (Homo sapiens, UniProt P41182).
T1 construct: Nano Luciferase fused at the N-terminus of full-length human BCL6; host or cells: HEK293-WT (ATCC CRL-1573)
Description: NanoBRET cell assay in HEK293-WT cells. The series is classed as cell-based. The source says:
Plasmids encoding Nano Luciferase fused at the N-terminus of full-length human BCL6 and encoding Halo tag fused at the C-terminus of the BCL6 binding domain (1292-1500) of human SMRT co-repressor were generated under contract by Promega Corporation. HEK293-WT cells were from ATCC (CRL-1573). Fugene HD transfection reagent (catalogue number E2311), HaloTag NanoBRET 618 ligand (catalogue number G980B) and NanoBRET Nano-Glo substrate (catalogue number N157B) were from Promega Ltd.
Assay day 1 (Transient Transfection): 8 x 10^6 HEK293-WT cells per T75 flask (one per compound plate), were transfected with mix comprising 10 µg BCL6 DNA, 10 µg domain SMRT DNA, 1 mL Opti-MEM and 60 µL FuGene (added last), incubating at room temperature for 10 mins prior to addition to flask. The flask was incubated for 20-24 hours at 37 °C and 5% CO2. Assay day 2 (Cell plating): Cells were detached, spun and re-suspended at 2 x 10^5 cells/mL, HaloTag NanoBRET 618 ligand at 1:1000 dilution was added and plated at 40 µL / well with test compounds prepared as above, a duplicate plate without HaloTag ligand was used as background control. The plates were incubated at 37 °C and 5% CO2 overnight (18-24 hours). Assay day 3 (Assay): 1:1000 NanoGlo substrate final was added to all wells, shaken for 30 seconds and luminescence then read on an Envision plate reader. […]

The subject of a further series is ULA cells. Description: Viability and cumulative cell number analysis, ULA. The class given is cell-based. Conditions: 14 days; for cell viability: GSK137 0.1-10 μM, BI3802 0.1 and 1 μM. As to the method: (§1) Farage cells were cultured in RPMI1640 (1×) + 20% heat-inactivated fetal bovine serum (FBS), ULA in Iscove's modified Dulbecco's medium + 20% FBS, whereas Karpas422 and VAL were cultured in RPMI1640 + 20% heat-inactivated FBS, all with the addition of 1% Glutamax and 1% sodium pyruvate.
(§2) Farage, ULA, Karpas422, and VAL cells were seeded into T25 tissue culture flasks in a total volume of 7 mL per flask at densities of 5 x10^4, 7 x10^4, 5 x10^4, and 4 x10^4 cells/mL, respectively and incubated overnight at 37 °C and 5% CO2. Cells were then treated with a 3-point titration of GSK137 (0.1 µM, 1 µM, and 10 µM) throughout a 14-day time course. Treatments with multiple concentrations of BI3802 were also included for comparison (Farage and Karpas422 cells were treated with 0.01 µM, 0.1 µM, and 1 µM BI3802; ULA cells were treated with 0.1 µM and 1 µM BI3802; VAL cells were treated with 0.1 µM, 1 µM, and 10 µM BI3802). Viability (trypan blue exlcusion) and cumulative cell number were measured on a Vi-CELL XR 2.03 (Beckman Coulter, Brea, CA, USA) on day of seeding and on days 3, 6, 10, and 14.

In series [2] the test system is Farage, Karpas422 and VAL cells. Description: Viability and cumulative cell number analysis, Farage, Karpas422, VAL. The class given is cell-based. The conditions noted are these: 14 days. As to the method: as §1, §2
For series [3] the test system is unchanged. Description: Cell cycle analysis, Farage, Karpas422, VAL. The class given is cell-based. The conditions noted are these: 2 or 6 days. Here is the method: Farage, ULA, KARPAS-422, and VAL cells were seeded into 6-well tissue culture dishes in a total volume of 6 mL at densities of 6.25 x10^3, 7.81 x10^3, 6.25 x10^3, and 1.56 x10^3 cells/mL, respectively and incubated overnight at 37 °C and 5% CO2. Cells were then treated with 0.1 µM, 1 µM, or 10 µM GSK137 or 1 µM BI3802 for 2 or 6 days at 37 °C and 5% CO2. Cell cycle analysis was performed using the Click-iT EdU Alexa Fluor 647 Flow Cytometry Assay Kit (Thermo Fisher Scientific, Waltham, MA, USA) following the manufacturer’s instructions, with volumes adjusted for a […] U-bottom plate, and with an approximately 1 hour treatment with 10 μM EdU. After EdU treatment, approximately 2x10^5 cells per well were transferred into a 96-well, non-tissue culture treated U-bottom plate and stained with 6.7µg/ml final FxCycle Violet Stain for 30 minutes incubation at room temperature. Cells were then analyzed on a flow cytometer (BD FACS Canto […] or LSR FortessaTM X-20 (Becton Dickinson, Franklin Lakes, NJ, USA)) with compensation each day using one cell line and data analyzed using FlowJo software (version 10.3). Percentages of cells in each phase of the cell cycle were then averaged across technical replicates.

The test system of series [4] is BCL6 target genes in Farage cells. Description: Semiquantitative real-time PCR of ten BCL6 target genes. The class given is cell-based. The conditions noted are these: 72-h treatment. As to the method: Farage cells were plated at a density of 3000 cells/100 µl in 96-well plates, incubated overnight at 37 °C then treated with a 10-point, 1:3-fold serial dilution of compound at a top concentration of 20 µM for GSK137 or 10 µM BI3802. Cells were returned to the incubator for 3 days prior to harvesting for RNA isolation. RNA was isolated using the TurboCapture 96 Kit (Qiagen, Hilden, Germany; # 72251), cDNA generated using the High Capacity cDNA Reverse Transcription kit (ABI, Foster City, CA, USA; #4374966) both following the manufacturer’s instructions. qPCR was performed on a ViiA7 real-time PCR machine (Life Technologies, Carlsbad, CA, USA) using the Fast TaqMan ΔΔCt method. Quadruplicate readings were measured for each biological replicate sample. Individual TaqMan assays are listed (Table S4). Expression data were analyzed using the Comparative Ct^(2–ΔΔ^Ct) method (42) The Ct values of the treated samples are compared to vehicle treated samples and normalized to GAPDH. Changes are presented as an average RQ (termed “relative expression”). RQ values between 0 and 1 correspond to a downregulation of gene expression, RQ values greater than 1 correspond to upregulation.
For orientation: Real-time PCR tracks product formation cycle by cycle.

Series [5] is described as follows: GSK in-house kinetic solubility assay (CAD). The conditions noted are these: kinetic from dmso stock, charged aerosol detector. The class given is physicochemical.

Values after ≈ are worked out from the molar mass of the structure shown. “Also recorded” adds a separate entry of the source.

As for `CNC(=O)COc1cc2cc(Nc3nc(N4C[C@H](C)C[C@H](C)C4)ncc3Cl)ccc2n(C)c1=O` [BI3802, reference compound], the “activity in cellular assay compared with reported potency” value in series [1] (cellular) is given as “consistent with the previously reported potency”. For the same molecule, in the series with ULA cells, the cumulative cell number result is reported as “most sensitive” and the cell viability entry was “only appreciably reduced viability in ULA at the highest concentration used”. The cumulative cell number entry in series [2] is “showed some response”. The “fraction of cells in G1” value in series [3] is listed as “only minor increase in the fraction of cells in G1”. In series [4], the “expression changes in a panel of 10 BCL6 target genes” value was “dose-dependent changes to six of the ten genes”.
One may read the solubility as the dissolved amount per volume that the medium holds. A low value points to little dissolved substance. In the case of `Cc1ncccc1[C@H]1C[C@@H](c2cccc3nc(N)ccc23)Nc2c(F)cnn21` [GSK137, 5-((5S,7R)-3-Fluoro-7-(2-methylpyridin-3-yl)-4,5,6,7-tetrahydropyrazolo[1,5-a]pyrimidin-5-yl)quinolin-2-amine], the IC50 in series [1] (live cells, full-length human BCL6 / SMRT BBD, read-out: pIC50 Human NanoBret cell (converted)) is 50.1 nM. In addition, in series [5], the solubility amounted to 128 µg/mL (≈ 342 µM). The values for the cell viability entry (in the series with ULA cells; in series [2] (GSK137 0.1-10 μM)) were “no major change in cell viability; also recorded: only minimal reduction in viability” and “no major change in cell viability; also recorded: no detectable change”, respectively. Further, in series [2], the cumulative cell number entry is “no detectable change”. In series [3], the “fraction of cells in G1” value is recorded as “only minor increase in the fraction of cells in G1”. In addition, the “expression changes in a panel of 10 BCL6 target genes” value in series [4] was “clear increase only in SOCS2 with some increase in CD69”.
